In patent US20230228744A1, “DRY EYE DISEASE BIOMARKERS AND THEIR USE FOR TREATMENT” (Aldeyra Therapeutics, Inc., priority 2020, published 2023):

Legend:
[1] = tested on: RASP (reactive aldehyde species); experiment: In vitro RASP elimination by reproxalap; format: biochemical; conditions: reproxalap at equimolar concentrations
From the text: Regarding the use of tear RASP levels as a clinical endpoint, it is important to note that this is (to date) unprecedented. The FDA has not agreed to the use of RASP before as a clinical endpoint. In this regard, we have reached agreement with the US Food and Drug Administration (FDA) for the use of RASP (reactive aldehyde species) as an objective sign for the treatment of dry eye disease. RASP are pre-cytokine pro-inflammatory mediators that are elevated in the tears of patients with dry eye disease, and correlate with dry eye disease symptoms and signs. […] In in vitro studies, RASP were eliminated within 60 to 90 minutes when exposed to reproxalap at equimolar concentrations. […] The use of RASP as a trial endpoint represents the first novel objective sign for the treatment in dry eye disease in over a decade.

patients = experiment: Overall clinical safety experience of topical ocular reproxalap; format: in vivo, human
[2] = tested on: subjects with dry eye disease; experiment: Phase 2/3 (TRANQUILITY) run-in cohort, dry eye signs and symptoms (environmental dosing and dry eye chamber); format: in vivo, human
Experimental: Changes over 24 hours after the first dose on Day 1 and changes over 90 minutes in the CAE will be assessed via mixed effect model for repeated measures (MMRM) of change from baseline (pre-dose Day 1), with baseline score as a covariate, and time and test article group as factors. For assessments that include both eyes, eye will be added as a factor.
Schirmer's Test will be assessed via MMRM of change from baseline (screening), with baseline score as a covariate, and pre/post dose, eye, and test article group as factors.
This study is a Phase 2/3, multi-center, randomized, double-masked, parallel design, vehicle-controlled trial designed to evaluate the efficacy and safety of 0.25% Reproxalap Ophthalmic Solution compared to vehicle in subjects with dry eye disease. Approximately twenty subjects will be enrolled in the Initial Cohort, and approximately 300 subjects will be enrolled in the Main Cohort. Male and female subjects at least 18 years of age with a subject-reported history of dry eye disease in both eyes and meeting all other eligibility criteria will be randomized to receive reproxalap or vehicle in a 1:1 ratio (approximately 150 subjects in each treatment group).
This study uses a challenge-model of dry eye disease known as a “dry eye chamber.” Challenge-model trials utilizing a controlled chamber are an FDA accepted design for pivotal endpoints. See, for example, FDA published “Dry Eye: Developing Drugs for Treatment” draft guidance; December 2020.
Dry eye chambers control relative humidity, temperature, airflow, and visual tasking in order to stress the ocular surface. Chambers simulate a “bad day” scenario in the life of a dry eye disease sufferer. Trial designs utilizing chambers are able to confirm the utility of drugs with rapid onset of action during an acute ocular surface challenge.
Secondary Endpoints: • Visual analog scale eye dryness score assessed over 24 hours after first dose on Day 1, and over 90 minutes in CAE® (Key Secondary Symptom Endpoint) • Ora Calibra® Ocular Discomfort Scale assessed over 24 hours after first dose on Day 1, and over 90 minutes in CAE® • Ocular Discomfort & 4-Symptom Questionnaire assessed over 24 hours after first dose on Day 1, and before and after CAE® • Ora Calibra® Conjunctival Allergen Challenge Ocular Itching Scale assessed over 24 hours after first dose on Day 1, and before and after CAE® • Schirmer's Test change from baseline before and after the final dose on Day 1 • Change in tear RASP levels before and after Dose 1 and 2 on Day 1 and Dose 3 on Day 2. Conjunctival redness over 24 hours after first dose on Day 1.
Visit 1 (Day −14 −16/+2, Screening) • Informed Consent and HIPAA • Demographics (e.g. gender, date of birth, race, ethnicity) • Medical/Medication & Ocular History • Urine Pregnancy Test (as needed) • Symptom Questionnaires: • a. Ocular Discomfort & 4-Symptom Questionnaire • b. Ora Calibra® Ocular Discomfort Scale • c. Ocular Dryness Visual Analog Scale • d. Ora Calibra® Conjunctival Allergen Challenge Ocular Itching Scale • Visual Acuity (ETDRS) • Slit Lamp Biomicroscopy with Conjunctival Redness assessment • Fluorescein Staining using the Ora Calibra® Corneal and Conjunctival Staining Scale • Inclusion/Exclusion Criteria Review • In-Office Vehicle Instillation by trained site staff (within 10 minutes prior to CAE® entry) • CAE® Exposure (90 minutes, vehicle administration at 45 minutes) with: • a. Ocular Dryness Visual Analog Scale every 5 minutes • b. Ora Calibra® Ocular Discomfort Scale every 5 minutes • c. Conjunctival Redness Photography at 0, 5, 10, 15, 20, 30, 45 (before 45-minute dose), 50, 55, 60, 65, 75, 90 minutes (+/−2 minutes) via digital photography • Slit Lamp Biomicroscopy with Conjunctival Redness assessment • Schirmer Test • Intraocular Pressure • Dilated Exam • Schedule for Visit 2 […]

[3] = Day 1, 24 hours of QID dosing, N = 12, vehicle +0.1, P 0.006

## CC(C)(O)c1nc2ccc(Cl)cc2cc1N [reproxalap, Reproxalap]
[1]
  time to elimination of RASP: 60 to 90 min
patients; over 1,100 patients
  most commonly reported adverse event in clinical trials: mild instillation site irritation
patients; studied in over 1,100 patients
  observed safety concerns: no observed safety concerns
[2]; [3]
  Change From Baseline, OD4S: Dryness (0-5): −1.2
  Change From Baseline, OD4S: Grittiness (0-5): −1.1
[2]; Day 1, 24 hours of QID dosing, N = 12, vehicle +0.4, P 0.003
  Change From Baseline, OD4S: Discomfort (0-5): −0.7
[2]; Day 1, 24 hours of QID dosing, N = 12, vehicle +0.4, P 0.07
  Change From Baseline, Ocular Discomfort Scale (0-4): −0.7
[2]; Day 1, 24 hours of QID dosing, N = 12, vehicle +0.4, P 0.23
  Change From Baseline, OD4S: Sting (0-5): −0.1
[2]; Day 1, 24 hours of QID dosing, N = 12, vehicle +0.8, P 0.07
  Change From Baseline, OD4S: Burn (0-5): −0.1
[2]; Day 1, improvement after a single dose, N = 12, vehicle +1.3, P 0.30
  Change From Baseline, Schirmer's Test: +3.4 mm
[2]; after environmental dosing, Day 1, 24 hours of QID dosing, 0.25% reproxalap, N = 12, vehicle +2, P 0.003
  Change From Baseline, VAS Dryness (0-100): −26
[2]; dry eye chamber
  onset of acute improvements in ocular symptoms and objective sign after administration: within minutes
[2]; dry eye chamber, run-in cohort, p<0.0001
  Ocular Discomfort Score vs vehicle: statistically significant improvement over vehicle
[2]; dry eye chamber, run-in cohort, p=0.001
  VAS Ocular Dryness vs vehicle: statistically significant improvement over vehicle
[2]; dry eye chamber, run-in cohort, p=0.03
  ocular redness vs vehicle: statistically significant improvement over vehicle
